Measurements published in patent US20250034171A1, “IMIDAZOPYRIDINE AMIDES AND RELATED COMPOUNDS FOR USE IN THE TREATMENT OF BACTERIAL INFECTIONS” (priority 2021, published 2025).
≈ marks a conversion by molar mass, not a printed value. Like-named read-outs stand apart in the source and are kept apart here.

System: Mycobacterium tuberculosis strain H37Rv
Assay: Test 2: MIC determination against M. tuberculosis, resazurin fluorescence
Assay type: cell-based
Conditions: Test 2, M. tuberculosis H37Rv; for MIC90: read-out: Bacterial activity MIC90; for IC50: read-out: Bacterial activity pMIC50 (converted)
[1] = Mycobacterium tuberculosis, H37RV

Row | SMILES | MIC90 [1] [µM] | IC50 [1] [pM] | Bacterial activity pMIC50 | MIC90 [µM]
1 | CCc1nc2ncc(C)cn2c1C(=O)NCc1ccc(-c2cn3c(n2)CC(C(F)(F)F)CC3)c(F)c1 (stereo not drawn) [Compound 117] | 0.077 (≈ 0.0385 µg/mL) | 3090 | – | –
2 | CCc1nc2ncc(OC)cn2c1C(=O)NCc1ccc(-c2nc3n(n2)CCCC3)cc1 [Compound 119] | – | – | 7.72 | 0.052 (≈ 0.0224 µg/mL)
3 | CCc1nc2ncc(C)cn2c1C(=O)NCc1ccc(-c2cn3c(n2)CC(C(F)(F)F)CC3)c(C)c1 (stereo not drawn) [Compound 121] | 0.035 (≈ 0.0174 µg/mL) | 8710 | – | –
4 | CCc1nc2ncc(C)cn2c1C(=O)NCc1cnc(-c2cn3c(n2)CC(C(F)(F)F)CC3)cc1C (stereo not drawn) [Compound 122] | 0.21 (≈ 0.104 µg/mL) | 43700 | – | –
5 | CCc1nc2ncc(C)cn2c1C(=O)NCc1cnc(-c2cn3c(n2)CC(C(F)(F)F)CC3)c(C)c1 (stereo not drawn) [Compound 123] | > 0.5 | > 501000 | – | –
6 | CCc1nc2ncc(C)cn2c1C(=O)NCc1ccc(-c2nc3n(n2)CC(C)CC3)cc1 (stereo not drawn) [Compound 125] | 0.04 (≈ 0.0172 µg/mL) | 11200 | – | –
7 | CCc1nc2ccccn2c1C(=O)NCc1ccc(-c2nc3n(n2)CCC(C(C)(F)F)C3)cc1 (stereo not drawn) [Compound 133] | 0.051 (≈ 0.0237 µg/mL) | 11700 | – | –
8 | CCc1nc2n(c1C(=O)NCc1ccc(-c3nc4n(n3)CCC(C(C)(F)F)C4)cc1)CCCC2 (stereo not drawn) [Compound 134] | 0.12 (≈ 0.0562 µg/mL) | 25700 | – | –
9 | CCc1nc2nc(CN)ccn2c1C(=O)NCc1ccc(-c2nc3n(n2)CCC(C(F)(F)F)C3)cc1 (stereo not drawn) [Compound 138] | > 0.5 | > 501000 | – | –
10 | CCc1nc2n(c1C(=O)NCc1ccc(-c3nc4n(n3)CC[C@@H](C(F)(F)F)C4)cc1)C[C@H](OC)CC2 [Compound 140] | 0.33 (≈ 0.166 µg/mL) | 115000 | – | –
11 | CCc1nc2n(c1C(=O)NCc1ccc(-c3nc4n(n3)CC[C@H](C(F)(F)F)C4)cc1)C[C@H](OC)CC2 [Compound 141] | > 0.5 | 166000 | – | –
12 | CCc1nc2n(c1C(=O)NCc1ccc(-c3cn4c(n3)C[C@@H](C(F)(F)F)CC4)cc1)CCCC2 [Compound 142] | 0.097 (≈ 0.0457 µg/mL) | 22900 | – | –
13 | CCc1nc2ncc(C)cn2c1C(=O)NCc1ccc(-c2nc3n(n2)CCC(COC)C3)c(F)c1 (stereo not drawn) [Compound 143] | 0.092 (≈ 0.0439 µg/mL) | 33100 | – | –
14 | CCc1nc2cc(F)ccn2c1C(=O)NCc1ccc(-c2nc3n(n2)CCC(C(C)(F)F)C3)cc1 (stereo not drawn) [Compound 145] | 0.041 (≈ 0.0198 µg/mL) | 11500 | – | –
15 | CCc1nc2ncc(C)cn2c1C(=O)NCc1ccc(-c2cc3n(n2)CCCC3)c(C)n1 [Compound 146] | 0.15 (≈ 0.0644 µg/mL) | 42700 | – | –
16 | CCc1nc2ncc(C)cn2c1C(=O)NCc1ccc(-c2cn3c(n2)CC(C(F)F)CC3)cc1 (stereo not drawn) [Compound 147] | – | – | 7.82 | 0.05 (≈ 0.0232 µg/mL)
17 | CCc1nc2ncc(C)cn2c1C(=O)NCc1ccc(-c2nc3n(n2)CCCC3)c(C)n1 [Compound 148] | > 0.5 | 331000 | – | –
18 | CCc1nc2ncccn2c1C(=O)NCc1ccc(-c2nc3n(n2)CCC(C)C3)cc1 (stereo not drawn) [Compound 149] | > 0.5 | 229000 | – | –
19 | [2H]C([2H])([2H])c1cnc2nc(CC)c(C(=O)NCc3ccc(-c4nc5n(n4)CC[C@@H](C)C5)cc3)n2c1 [Compound 150] | 0.03 (≈ 0.013 µg/mL) | 10000 | – | –
20 | CCc1nc2ccc(C(F)(F)F)cn2c1C(=O)NCc1ccc(-c2cn3c(n2)C[C@@H](C(F)(F)F)CC3)cc1 [Compound 153] | > 0.5 | > 501000 | – | –
21 | CCc1nc2ccc(C(F)(F)F)cn2c1C(=O)NCc1ccc(-c2cn3c(n2)C[C@H](C(F)(F)F)CC3)cc1 [Compound 154] | > 0.5 | > 501000 | – | –
22 | CCc1nc2ncc(C(F)(F)F)cn2c1C(=O)NCc1ccc(-c2nc3n(n2)CC[C@@H](C)C3)cc1 [Compound 155] | > 0.5 | > 501000 | – | –
23 | CCc1nc2ncccn2c1C(=O)NCc1ccc(-c2nc3n(n2)CC[C@@H](C)C3)cc1 [Compound 156] | > 0.5 | 191000 | – | –
24 | CCc1nc2ncccn2c1C(=O)NCc1ccc(-c2nc3n(n2)CC[C@H](C)C3)cc1 [Compound 157] | 0.41 (≈ 0.17 µg/mL) | 126000 | – | –
25 | CCc1nc2ncccn2c1C(=O)NCc1ccc(-c2cn3c(n2)C[C@H](C(F)(F)F)CC3)cc1 [Compound 158] | 0.29 (≈ 0.136 µg/mL) | 75900 | – | –
26 | CCc1nc2ccccn2c1C(=O)NCc1ccc(-c2nc3n(n2)CC[C@H](C)C3)cc1 [Compound 159] | 0.037 (≈ 0.0153 µg/mL) | 11000 | – | –
27 | CCc1nc2n(c1C(=O)NCc1ccc(-c3nc4n(n3)CC[C@H](C)C4)cc1)CCCC2 [Compound 160] | 0.088 (≈ 0.0368 µg/mL) | 35500 | – | –
28 | CCc1nc2ccccn2c1C(=O)NCc1ccc(-c2cn3c(n2)C[C@@H](C(F)(F)F)CC3)cc1 [Compound 161] | 0.056 (≈ 0.0262 µg/mL) | 18600 | – | –
29 | CCc1nc2ccccn2c1C(=O)NCc1ccc(-c2nc3n(n2)CC[C@@H](C)C3)cc1 [Compound 162] | 0.044 (≈ 0.0182 µg/mL) | 11200 | – | –
30 | CCc1nc2n(c1C(=O)NCc1ccc(-c3nc4n(n3)CC[C@@H](C)C4)cc1)CCCC2 [Compound 163] | 0.17 (≈ 0.0712 µg/mL) | 66100 | – | –
